Experiments:
[1] = Liquid
[2] = wn = mass fraction of the nth substance listed; details: 101 kPa, Liquid

C[NH+](CCO)CCO.F[B-](F)(F)F
[1], 101.33 kPa
Details	mass density [kg/m3]	viscosity [mPa·s]
303.15 K	1425.56	208.8
313.15 K	1418.1	117.7
323.15 K	1410.63	71.79
333.15 K	1403.2	46.85
343.15 K	1395.85	32.35

C[NH+](CCO)CCO.F[B-](F)(F)F + O
[2]
Details	mass density, 303.15 K [kg/m3]	mass density, 313.15 K [kg/m3]	mass density, 323.15 K [kg/m3]	mass density, 333.15 K [kg/m3]	mass density, 343.15 K [kg/m3]	viscosity, 303.15 K [mPa·s]	viscosity, 313.15 K [mPa·s]	viscosity, 323.15 K [mPa·s]	viscosity, 333.15 K [mPa·s]	viscosity, 343.15 K [mPa·s]
w1 = 0.3001	1084.71	1075.11	1067.02	1058.01	1047.87	–	–	–	–	–
w2 = 0.3001	–	–	–	–	–	1.245	1.041	0.8831	0.7874	0.7196

CCCCn1cc[n+](C)c1.F[B-](F)(F)F [1-butyl-3-methylimidazolium tetrafluoroborate]
[1], 101.33 kPa
Details	mass density [kg/m3]	viscosity [mPa·s]
303.15 K	1195.7	68.9
313.15 K	1188.62	44.73
323.15 K	1181.59	30.81
333.15 K	1174.6	22.28
343.15 K	1167.67	16.75

CCCCn1cc[n+](C)c1.F[B-](F)(F)F [1-butyl-3-methylimidazolium tetrafluoroborate] + O
[2], w1 = 0.2998
Details	mass density [kg/m3]	viscosity [mPa·s]
303.15 K	1045.35	1.292
313.15 K	1039.84	1.046
323.15 K	1033.76	0.8731
333.15 K	1027.74	0.7473
343.15 K	1021.18	0.6549

CCCCn1cc[n+](C)c1.F[B-](F)(F)F [1-butyl-3-methylimidazolium tetrafluoroborate] + OCCN(CCO)CCO
[2], w2 = 0
Details	mass density [kg/m3]	viscosity [mPa·s]
303.15 K	1195.7	68.9
313.15 K	1188.62	44.73
323.15 K	1181.59	30.81
333.15 K	1174.6	22.28
343.15 K	1167.67	16.75

CN(CCO)CCO.CN(CCO)CCO.O=S(=O)(O)O [2,2'-(methylimino)diethanol sulfate (2:1)]
[1], 101.33 kPa
Details	mass density [kg/m3]	viscosity [mPa·s]
303.15 K	1282.49	–
313.15 K	1276.83	1858
323.15 K	1271.25	990.8
333.15 K	1265.72	571.2
343.15 K	1260.24	350.4

CN(CCO)CCO.CN(CCO)CCO.O=S(=O)(O)O [2,2'-(methylimino)diethanol sulfate (2:1)] + O
[2]
Details	mass density, 303.15 K [kg/m3]	mass density, 313.15 K [kg/m3]	mass density, 323.15 K [kg/m3]	mass density, 333.15 K [kg/m3]	mass density, 343.15 K [kg/m3]	viscosity, 303.15 K [mPa·s]	viscosity, 313.15 K [mPa·s]	viscosity, 323.15 K [mPa·s]	viscosity, 333.15 K [mPa·s]	viscosity, 343.15 K [mPa·s]
w1 = 0.2999	1091.95	1087.46	1082.24	1075.89	1068.32	–	–	–	–	–
w1 = 0.3001	–	–	–	–	–	1.795	1.446	1.196	1.012	0.872

NCCO [2-aminoethan-1-ol] + O
[2], w1 = 0.3002
Details	mass density [kg/m3]	viscosity [mPa·s]
303.15 K	1013.02	2.093
313.15 K	1007.98	1.603
323.15 K	1003.42	1.271
333.15 K	997.157	1.037
343.15 K	989.924	0.8681

C[NH+](CCO)CCO.[Cl-] [2-hydroxy-N-(2-hydroxyethyl)-N-methylethanaminium chloride]
[1], 101.33 kPa
Details	mass density [kg/m3]	viscosity [mPa·s]
303.15 K	1180.42	512.1
313.15 K	1174.71	278.2
323.15 K	1169.24	164.2
333.15 K	1163.75	104.1
343.15 K	1158.29	70.45

C[NH+](CCO)CCO.[Cl-] [2-hydroxy-N-(2-hydroxyethyl)-N-methylethanaminium chloride] + O
[2]
Details	mass density, 303.15 K [kg/m3]	mass density, 313.15 K [kg/m3]	mass density, 323.15 K [kg/m3]	mass density, 333.15 K [kg/m3]	mass density, 343.15 K [kg/m3]	viscosity, 303.15 K [mPa·s]	viscosity, 313.15 K [mPa·s]	viscosity, 323.15 K [mPa·s]	viscosity, 333.15 K [mPa·s]	viscosity, 343.15 K [mPa·s]
w1 = 0.3001	–	–	–	–	–	1.539	1.265	1.067	0.8862	0.7911
w1 = 0.3006	1058.44	1053.89	1049.23	1043.31	1037.05	–	–	–	–	–

C[NH+](CCO)CCO.C[NH+](CCO)CCO.C[NH+](CCO)CCO.O=P([O-])([O-])[O-] [2-hydroxy-N-(2-hydroxyethyl)-N-methylethanaminium phosphate]
[1], 101.33 kPa
Details	mass density [kg/m3]	viscosity [mPa·s]
303.15 K	1215.95	–
313.15 K	1208.49	2483
323.15 K	1200.88	1426
333.15 K	1193.23	822.5
343.15 K	1185.52	385.4

C[NH+](CCO)CCO.C[NH+](CCO)CCO.C[NH+](CCO)CCO.O=P([O-])([O-])[O-] [2-hydroxy-N-(2-hydroxyethyl)-N-methylethanaminium phosphate] + O
[2]
Details	mass density, 303.15 K [kg/m3]	mass density, 313.15 K [kg/m3]	mass density, 323.15 K [kg/m3]	mass density, 333.15 K [kg/m3]	mass density, 343.15 K [kg/m3]	viscosity, 303.15 K [mPa·s]	viscosity, 313.15 K [mPa·s]	viscosity, 323.15 K [mPa·s]	viscosity, 333.15 K [mPa·s]	viscosity, 343.15 K [mPa·s]
w1 = 0.3001	–	–	–	–	–	2.63	2.125	1.805	1.594	1.455
w1 = 0.3007	1075.32	1070.31	1063.44	1055.39	1045.38	–	–	–	–	–

F[B-](F)(F)F.[NH3+]CCO [2-hydroxyethanaminium tetrafluoroborate]
[1], 101.33 kPa
Details	mass density [kg/m3]
303.15 K	1490.57
313.15 K	1482.62
323.15 K	1474.94
333.15 K	1467.85
343.15 K	1464.59

[1], 101.33 kPa, Concentric cylinders viscometry
Details	viscosity [mPa·s]
303.15 K	59.39
313.15 K	48.68
333.15 K	32.85
343.15 K	27.84

F[B-](F)(F)F.[NH3+]CCO [2-hydroxyethanaminium tetrafluoroborate] + O
[2], w1 = 0.3004
Details	mass density [kg/m3]	viscosity [mPa·s]
303.15 K	1116.48	1.007
313.15 K	1110.85	0.8573
323.15 K	1104.95	0.7412
333.15 K	1098.99	0.6743
343.15 K	1093.41	0.5896

CN(CCO)CCO [N-methyldiethanolamine]
[1], 101.33 kPa
Details	mass density [kg/m3]
303.15 K	1033.74
313.15 K	1026.72
323.15 K	1019.48
333.15 K	1012.32
343.15 K	1002.25

[1], 101.33 kPa, Concentric cylinders viscometry
Details	viscosity [mPa·s]
303.15 K	57.69
313.15 K	34.79
323.15 K	21.88
333.15 K	14.6
343.15 K	9.855

CN(CCO)CCO [N-methyldiethanolamine] + O
[2], w1 = 0.3002
Details	mass density [kg/m3]	viscosity [mPa·s]
303.15 K	1022.9	2.612
313.15 K	1018	1.937
323.15 K	1012.96	1.505
333.15 K	1006.92	1.207
343.15 K	–	0.8944

OCCN(CCO)CCO [triethanolamine]
[1], 101 kPa
Details	mass density [kg/m3]	viscosity [mPa·s]
303.15 K	1114.43	398.2
313.15 K	1108.34	195.9
323.15 K	1102.23	103.6
333.15 K	1095.96	60.81
343.15 K	1089.6	37.94

OCCN(CCO)CCO [triethanolamine] + CCCCn1cc[n+](C)c1.F[B-](F)(F)F
[2]
Details	mass density, 303.15 K [kg/m3]	mass density, 313.15 K [kg/m3]	mass density, 323.15 K [kg/m3]	mass density, 333.15 K [kg/m3]	mass density, 343.15 K [kg/m3]	viscosity, 303.15 K [mPa·s]	viscosity, 313.15 K [mPa·s]	viscosity, 323.15 K [mPa·s]	viscosity, 333.15 K [mPa·s]	viscosity, 343.15 K [mPa·s]
w1 = 0.1998	1175.8	1168.63	1161.5	1154.44	1147.42	57.94	35.89	24.02	17.13	12.82
w1 = 0.3987	1161.1	1154.41	1146.93	1139.88	1132.87	69.54	39.71	25.08	17.08	12.32
w1 = 0.5005	1150.08	1142.89	1135.48	1128.12	1120.99	86.62	47.22	28.82	19.11	13.48
w1 = 0.6	1146.42	1139.61	1132.76	1125.89	1119	116.5	60.67	36.1	23.35	16.14
w1 = 0.7999	1129.56	1123.21	1116.73	1110.16	1103.54	186.3	99.43	54.02	33.63	22.33
w1 = 1	1114.43	1108.34	1102.23	1095.96	1089.6	398.2	195.9	103.6	60.81	37.94

OCCN(CCO)CCO [triethanolamine] + O
[2], w1 = 0.3
Details	mass density [kg/m3]	viscosity [mPa·s]
303.15 K	1042.75	2.354
313.15 K	1037.93	1.799
323.15 K	1032.21	1.425
333.15 K	1023.74	1.172
343.15 K	1011.68	0.9591

Source: the NIST ThermoML archive (doi:10.1021/je100078w)
